# According to patent US20090062214A1, “Left-Side Glucose Lipid a Analogue” (priority 2004, published 2009):
# Read-outs that look alike come from different tables or passages of the source.
# Assays:
# [1] = system: TNFα production in human whole blood; test: Test for inhibition against TNFα production in human whole blood (in vitro); format: cell-based
# Procedure: This test was performed according to the method by Hartman et al. (D. A. Hartman, S. J. Ochalski and R. P. Carlson; The effects of antiinflammatory and antiallergic drugs on cytokine release after stimulation of human whole blood by lipopolysaccharide and zymosan A: Inflamm. Res., 44, 269 (1995)).
# Peripheral blood was obtained from a healthy volunteer in the presence of heparin. 360 μL of whole blood was added to a 96-well block to which 20 μL of a dimethyl sulfoxide solution of the analyte compound was previously added. 20 μL of lipopolysaccharide (LPS) (derived from E. coli 026:B6 available from SIGMA Inc.) (final concentration: 10 ng/mL) was further added thereto as a stimulant, and the mixture was sufficiently mixed and incubated under conditions of 37° C. and 5% CO2 for 6 hours. After completion of the incubation, the mixture was cooled to 4° C. to discontinue the reaction, and the mixture was immediately centrifuged at 2000 rpm for 15 minutes. The supernatant plasma was then separated and collected. The TNFα produced and released in the plasma was measured by an enzyme-linked immunosorbent assay (ELISA) kit (made by Biosource International). The inhibition rate was determined from the amount of cytokine produced in the presence and in the absence of the analyte compound. IC50 values were calculated from the average of the inhibition rates by the least-square method. For comparison, an IC50 value was calculated in the same manner as in the case of the test compound, using a compound described in U.S. Pat. No. 5,935,938 as a comparative compound. The structural formula of the comparative compound is shown.
# This test was performed in the same manner as in Test Example 1. The same comparative compound as in Test Example 1 was used.
# [2] = system: mouse fatal state after GalN.LPS injection; test: Survival test for mouse fatal state (in vivo); parameters: species or system C3H/HeN mice; settings: tail vein
# Procedure: (§1) A group of five C3H/HeN mice (male, 7-week old) known to be highly sensitive to lipopolysaccharide (LPS) was used. Galactosamine (GalN, 1 g/5 mL) and LPS (0.05 mg/5 mL) were each dissolved in normal saline, and they were mixed in equal amounts to prepare a GalN.LPS solution. The prepared GalN.LPS solution was injected into the tail vein in a dose of 10 mL/kg. The test compound was dissolved in a 0.1% aqueous triethylamine solution and the mixture was injected into the tail vein in a dose of 10 mL/kg substantially simultaneously with the injection of the GalN.LPS solution. […] The amount of TNFα produced in the plasma was measured using a commercially available TNFα ELISA kit. The inhibitory activity against TNFα production of the test compound was calculated as an inhibition rate against TNFα produced in response to the GalN.LPS injection. A regression line was obtained from the inhibition rates and the doses for the mice. The ID50 value (a dose at which the inhibition rate is 50%) was calculated from the regression line.
# This test was performed according to the method by H. Takada (The Journal of Infectious Diseases 162, 428-434 (1990)).
# Whether mice were alive or not was observed 72 hours after injection of a GalN.LPS solution, and the survival rate was calculated. The strain, age in week and gender of the mice used, the method of preparing the GalN.LPS solution and the compound solution administered, the administration route, the timing and the like were the same as in Test Example 3. A group of 8 mice was used in the test.
# TNFα production in mice = test: Test for inhibitory activity against TNFα production in mice (in vivo); parameters: species or system C3H/HeN mice; settings: GalN.LPS, tail vein injection, plasma TNFα after an hour
# Procedure: This test was performed according to the method by Y. Endo et al. (British Journal of Pharmacology 128, 5-12 (1999)).
# as §1
# [3] = human whole blood, LPS 10 ng/mL, 6 hours, ELISA, Test Example 1, Table 1, read-out: IC50 (nM), inhibition of TNFα production
SMILES,"Survival rate (%) of mice after 72 hours ([2]; dose 0.3 mg/kg, Table 7)","Survival rate (%) of mice after 72 hours ([2]; dose 0.3 mg/kg, Table 8)","Survival rate (%) of mice after 72 hours ([2]; dose 0.3 mg/kg, Table 9)","Survival rate (%) of mice after 72 hours ([2]; dose 1 mg/kg, Table 7)","Survival rate (%) of mice after 72 hours ([2]; dose 1 mg/kg, Table 8)","Survival rate (%) of mice after 72 hours ([2]; dose 1 mg/kg, Table 9)","Survival rate (%) of mice after 72 hours ([2]; dose 3 mg/kg, Table 7)","Survival rate (%) of mice after 72 hours ([2]; dose 3 mg/kg, Table 8)","Survival rate (%) of mice after 72 hours ([2]; dose 3 mg/kg, Table 9)","ID50 (mg/kg), inhibition of TNFα production (TNFα production in mice; Table 4)","ID50 (mg/kg), inhibition of TNFα production (TNFα production in mice; Table 5)","ID50 (mg/kg), inhibition of TNFα production (TNFα production in mice; Table 6)","IC50 [1, 3]",other results
"CCCCCC/C=C\CCCCCCCCCC(=O)N[C@H]1[C@H](OC[C@H]2O[C@H](OP(=O)(O)O)[C@H](NC(=O)CC(=O)CCCCCCCCCCC)[C@@H](OCCCCCCCCCC)[C@@H]2O)O[C@H](COC)[C@@H](OP(=O)(O)O)[C@@H]1OCC[C@@H](CCCCCCC)OC [Comparative Compound, reference compound]",25%,50%,13%,63%,75%,0%,100%,50%,25%,2.12 mg/kg,3.28 mg/kg,1.82 mg/kg,,"IC50 ([1]; Homo sapiens, 6 h, read-out: IC50 (nM), inhibition of TNFα production, human whole blood, LPS 10 ng/mL, 6 hours, ELISA, Test Example 1, Table 1): 0.97 nM; IC50 ([1]; Homo sapiens, 6 h, read-out: IC50 (nM), inhibition of TNFα production, human whole blood, LPS 10 ng/mL, 6 hours, ELISA, Test Example 2, Table 2): 2.94 nM; IC50 ([1]; Homo sapiens, 6 h, read-out: IC50 (nM), inhibition of TNFα production, human whole blood, LPS 10 ng/mL, 6 hours, ELISA, Test Example 2, Table 3): 8.24 nM"
"CCCCCC/C=C\CCCCCCCCCC(=O)O[C@H]1[C@H](OC[C@H]2O[C@H](OP(=O)(O)O)[C@H](NC(=O)CC(=O)CCCCCCCCCCC)[C@@H](OCCCCCCCCCC)[C@@H]2O)O[C@H](CO)[C@@H](OP(=O)(O)O)[C@@H]1OCC[C@@H](CCCCCCC)OC [Compound 3, Phosphono 3-O-decyl-2-deoxy-6-O-{3-O-[(R)-3-methoxydecyl]-2-O-[(Z)-11-octadecenoyl]-4-O-phosphono-β-D-glucopyranosyl}-2-(3-oxotetradecanoylamino)-α-D-glucopyranoside]",50%,,,100%,,,100%,,,0.96 mg/kg,,,0.65 nM,
"CCCCCC/C=C\CCCCCCCCCC(=O)O[C@H]1[C@H](OC[C@H]2O[C@H](OP(=O)(O)O)[C@H](OC(=O)CC(=O)CCCCCCCCCCC)[C@@H](OCCCCCCCCCC)[C@@H]2O)O[C@H](CO)[C@@H](OP(=O)(O)O)[C@@H]1OCC[C@@H](CCCCCCC)OC [Compound 9, Phosphono 3-O-decyl-6-O-{3-O-[(R)-3-methoxydecyl]-2-O-[(Z)-11-octadecenoyl]-4-O-phosphono-β-D-glucopyranosyl}-2-O-(3-oxotetradecanoyl)-α-D-glucopyranoside]",,,13%,,,38%,,,100%,,,<0.2 mg/kg,,"IC50 ([1]; human whole blood, LPS 10 ng/mL, 6 hours, ELISA, Test Example 2, Table 3, read-out: IC50 (nM), inhibition of TNFα production): 0.83 nM"
"CCCCCC/C=C\CCCCCCCCCCO[C@H]1[C@H](OC[C@H]2O[C@H](OP(=O)(O)O)[C@H](NC(=O)CC(=O)CCCCCCCCCCC)[C@@H](OCCCCCCCCCC)[C@@H]2O)O[C@H](COC)[C@@H](OP(=O)(O)O)[C@@H]1OCC[C@@H](CCCCCCC)OC [Compound 2, Phosphono 3-O-decyl-2-deoxy-6-O-{3-O-[(R)-3-methoxydecyl]-6-O-methyl-2-O-[(Z)-11-octadecenyl]-4-O-phosphono-β-D-glucopyranosyl}-2-(3-oxotetradecanoylamino)-α-D-glucopyranoside]",38%,,,75%,,,100%,,,<0.2 mg/kg,,,0.51 nM,
"CCCCCC/C=C\CCCCCCCCCC(=O)O[C@H]1[C@H](OC[C@H]2O[C@H](OP(=O)(O)O)[C@H](OC(=O)CC(=O)CCCCCCCCCCC)[C@@H](OCCCCCCCCCC)[C@@H]2O)O[C@H](COC)[C@@H](OP(=O)(O)O)[C@@H]1OCC[C@@H](CCCCCCC)OC [Compound 8, phosphono 3-O-decyl-6-O-{3-O-[(R)-3-methoxydecyl]-6-O-methyl-2-O-[(Z)-11-octadecenoyl]-4-O-phosphono-β-D-glucopyranosyl}-2-O-(3-oxotetradecanoyl)-α-D-glucopyranoside]",,50%,,,75%,,,100%,,,0.55 mg/kg,,,"IC50 ([1]; human whole blood, LPS 10 ng/mL, 6 hours, ELISA, Test Example 2, Table 2, read-out: IC50 (nM), inhibition of TNFα production): 0.06 nM"
"CCCCCC/C=C\CCCCCCCCCC(=O)O[C@H]1[C@H](OC[C@H]2O[C@H](OP(=O)(O)O)[C@H](NC(=O)CC(=O)CCCCCCCCCCC)[C@@H](OCCCCCCCCCC)[C@@H]2O)O[C@H](COC)[C@@H](OP(=O)(O)O)[C@@H]1OCC[C@@H](CCCCCCC)OC [Compound 1, Phosphono 3-O-decyl-2-deoxy-6-O-{3-O-[(R)-3-methoxydecyl]-6-O-methyl-2-O-[(Z)-11-octadecenoyl]-4-O-phosphono-β-D-glucopyranosyl}-2-(3-oxotetradecanoylamino)-α-D-glucopyranoside]",,,,,,,,,,0.45 mg/kg,,,0.49 nM,
